Values joined by “and” are separate entries in the source; they are usually repeats but may differ in a detail not shown here. Identical values can stand only once. Like-named read-outs stand apart in the source and are kept apart here.

The text below walks through data of patent publication US20030211457A1, “Methods and kits for testing mutagenicity” (Transgenomic, Inc., priority 2002, published 2003).

The test system of data set [1] is TA 1535. The conditions noted are these: TA1535, 1.5-hour exposure, plates incubated 2 days at 37° C., two columns of counts.
Description: For comparative purposes, Ames modified plate assay were performed. […] After the 1.5-hour exposure, the incubation was add to 2 ml of melted top agar, containing limited histidine and biotin, equilibrated to 50° C. (MOLTOX catalog no. 26-503) and plated on minimal plates lacking histidine (MOLTOX catalog no.21-400). The plates were incubated 2 days at 37° C. and revertant colonies counted as shown:
Data set [2] concerns TA 1535. The conditions noted are these: TA1535; azide levels 0.08, 0.2, 0.66, 2.0 and 6 ug; 1.5 hours at 37° C. then 18 hrs selective enrichment; no heteroduplex in vehicle control.
Description: Reactions were performed in sterile 1.5 ml microfuge tubes. Each tube contained: In a first stage incubation, 1 ul of overnight culture of TA 1535; 6.5 ul LB; 15 ul H2O (or S9); 67.5 ul M9 (−histidine+biotin). These four components are added from a master mix to the microfuge tubes. […] The mixture was incubated 1.5 hours at 37° C. The lids of the tubes were closed, but ventilated by piercing with a needle, for aeration. In a second stage incubation, 800 ul of Selective Enrichment Media was added, and the mixture is incubated for 18 hrs without shaking.
Selective Enrichment Media was prepared in a final volume of 900 ml as follows:
The media was autoclaved and cooled to room temperature. 90 ml of autoclaved 20% glucose was added. Prior to use, Biotin (Sigma) was added from a 400× stock (1.25M) to a final concentration of 1×.
A 1 ul aliquot was used in a “Hot start” PCR amplification with a final denaturation/renaturation step followed by analysis by DHPLC. Each dose was processed in quadruplicate.
For TA1535, the following 342 bp amplicon from the hisG gene was prepared:
In the PCR, the forward primer was [sequence] (SEQ ID NO: 2) and the reverse primer was [sequence] (SEQ ID NO: 3). The DNA polymerase was Optimase™ polymerase. The PCR conditions were as follows: […]

On to `[N-]=[N+]=[N-]` [sodium azide], for which the no. revertant colonies was 3 and 5 in the data set with TA 1535 [1] (NaN3 exposure amount 0.08 ug); 13 in the data set on TA 1535 [1] (NaN3 exposure amount 0.2 ug); 15 and 27 in the data set with TA 1535 [1] (NaN3 exposure amount 0.6 ug); 39 and 66 with TA 1535 [1] (NaN3 exposure amount 2 ug); >100 in the data set with TA 1535 [1] (NaN3 exposure amount 6 ug). In addition, the “DNA back-mutation at the hot spot (heteroduplex by DHPLC)” value in the data set with TA 1535 [2] is “caused DNA back-mutation at the hot spot”.
